From publication PMC11595424, “Heterocycles and a Sorbicillinoid from the Coral-Derived Fungus Penicillium chrysogenum” (Marine Drugs, 2024)

Each compound was assayed on MDA-MB-231 (human breast cancer) (assay: Cytotoxicity assay, SRB method, MDA-MB-231). Conditions: Homo sapiens; MDA-MB-231 cells, SRB method.
Format: cell-based
Protocol: (§1) The cytotoxic activity against the K562 (human leukemia) cell line was evaluated by MTT method, and the cytotoxic activities against L-02 (normal human hepatocytes), ASPC-1 (human pancreatic cancer), MDA-MB-231 (human breast cancer), NCI-H446, and NCI-H446/EP (human small cell lung cancer) cell lines were determined by SRB method. The difference between the two human small-cell lung cancer cell lines is that NCI-H446 is a sensitive cell line while the NCI-H446/EP cell line is resistant to cisplatin, etoposide, SN38, and doxorubicin. As a positive control, doxorubicin was used. […]
(§2) The cytotoxic activity against the K562 (human leukemia) cell line was evaluated by MTT method, and the cytotoxic activities against L-02 (normal human hepato-cytes), ASPC-1 (human pancreatic cancer), MDA-MB-231 (human breast cancer), NCI-H446 and NCI-H446/EP (human small cell lung cancer) cell lines were determined by SRB method.
(§3) Doxorubicin was used as a positive control.
(§4) In the cytotoxic assay, preliminary screening for cytotoxicity of compounds was performed at the concentration of 30 μM, then the compounds with inhibition rate greater than 60 % were rescreened for the IC 50 values. The blank control, vehicle control, positive control (doxorubicin) and compounds at five different concentrations (30, 15, 3.75, 1.875 and 0.9375 μM) were tested three times and the average OD values were taken to calculated IC50 values.
(§5) Table S11. Cytotoxic activities of 1−5
(§6) Compound c Inhibition rate (%) […]
(§7) a Doxorubicin was used as positive control. […]

SMILES | IC50
CC1C(CCc2nc3ccccc3c(=O)[nH]2)C2CC(=O)C1(C)C(=O)C2(C)O (stereo not drawn) [Compound 1, Chrysoquinazolinone A] | > 30 µM
CC(c1nc2ccccc2c(=O)[nH]1)N1CCCC1=O (stereo not drawn) [Compound 2, Chrysoquinazolinone B] | > 30 µM
Cc1cc(O)c(CC[C@@H](C)C(=O)O)c2scnc12 [Compound 3a, Chrysobenzothiazole A] | > 30 µM

Same assay, conditions: Table S11, preliminary screening, c 30 μM

SMILES | Inhibition rate (%) MDA-MB-231
CC1C(CCc2nc3ccccc3c(=O)[nH]2)C2CC(=O)C1(C)C(=O)C2(C)O (stereo not drawn) [Compound 1, Chrysoquinazolinone A] | -4.59%
CC(c1nc2ccccc2c(=O)[nH]1)N1CCCC1=O (stereo not drawn) [Compound 2, Chrysoquinazolinone B] | 5.80%
Cc1cc(O)c(CC[C@@H](C)C(=O)O)c2scnc12 [Compound 3a, Chrysobenzothiazole A] | 0.40%

These compounds were tested on K562 (human leukemia) cell line (assay: Cytotoxicity assay, MTT method, K562). Conditions: Homo sapiens; K562 cell line, MTT method.
Format: cell-based
Protocol: as §1, §2, §3, §4, §5, §6
a Doxorubicin was used as positive control.
Table S12. Cytotoxicity against K562 cell line of 5

SMILES | IC50
CC1C(CCc2nc3ccccc3c(=O)[nH]2)C2CC(=O)C1(C)C(=O)C2(C)O (stereo not drawn) [Compound 1, Chrysoquinazolinone A] | > 30 µM
CC(c1nc2ccccc2c(=O)[nH]1)N1CCCC1=O (stereo not drawn) [Compound 2, Chrysoquinazolinone B] | > 30 µM
Cc1cc(O)c(CC[C@@H](C)C(=O)O)c2scnc12 [Compound 3a, Chrysobenzothiazole A] | > 30 µM

Same assay, conditions: Table S11, preliminary screening, c 30 μM

SMILES | Inhibition rate (%) K562
CC1C(CCc2nc3ccccc3c(=O)[nH]2)C2CC(=O)C1(C)C(=O)C2(C)O (stereo not drawn) [Compound 1, Chrysoquinazolinone A] | 35.08%
CC(c1nc2ccccc2c(=O)[nH]1)N1CCCC1=O (stereo not drawn) [Compound 2, Chrysoquinazolinone B] | 33.57%
Cc1cc(O)c(CC[C@@H](C)C(=O)O)c2scnc12 [Compound 3a, Chrysobenzothiazole A] | 20.39%

What follows are compounds tested on NCI-H446 (human small cell lung cancer) cell line (assay: Cytotoxicity assay, SRB method, NCI-H446). Conditions: Homo sapiens; NCI-H446 (sensitive) cells, SRB method.
Format: cell-based
Protocol: as §1, §2, §3, §4, §5, §6, §7
Table S13. Cytotoxicity against NCI-H446 cell line of 5 c (μM) OD value Inhibition rate (%) IC 50 ( μM)

SMILES | IC50
CC1C(CCc2nc3ccccc3c(=O)[nH]2)C2CC(=O)C1(C)C(=O)C2(C)O (stereo not drawn) [Compound 1, Chrysoquinazolinone A] | > 30 µM
CC(c1nc2ccccc2c(=O)[nH]1)N1CCCC1=O (stereo not drawn) [Compound 2, Chrysoquinazolinone B] | > 30 µM
Cc1cc(O)c(CC[C@@H](C)C(=O)O)c2scnc12 [Compound 3a, Chrysobenzothiazole A] | > 30 µM

Same assay, conditions: Table S11, preliminary screening, c 30 μM

SMILES | Inhibition rate (%) NCI-H446
CC1C(CCc2nc3ccccc3c(=O)[nH]2)C2CC(=O)C1(C)C(=O)C2(C)O (stereo not drawn) [Compound 1, Chrysoquinazolinone A] | 2.22%
CC(c1nc2ccccc2c(=O)[nH]1)N1CCCC1=O (stereo not drawn) [Compound 2, Chrysoquinazolinone B] | 4.70%
Cc1cc(O)c(CC[C@@H](C)C(=O)O)c2scnc12 [Compound 3a, Chrysobenzothiazole A] | 1.04%

Each compound was assayed on ASPC-1 (human pancreatic cancer) (assay: Cytotoxicity assay, SRB method, ASPC-1). Conditions: Homo sapiens, ASPC1; ASPC-1 cells, SRB method.
Format: cell-based
Protocol: as §1, §2, §3, §4, §5, §6, §7

SMILES | IC50
CC1C(CCc2nc3ccccc3c(=O)[nH]2)C2CC(=O)C1(C)C(=O)C2(C)O (stereo not drawn) [Compound 1, Chrysoquinazolinone A] | > 30 µM
CC(c1nc2ccccc2c(=O)[nH]1)N1CCCC1=O (stereo not drawn) [Compound 2, Chrysoquinazolinone B] | > 30 µM
Cc1cc(O)c(CC[C@@H](C)C(=O)O)c2scnc12 [Compound 3a, Chrysobenzothiazole A] | > 30 µM

Same assay, conditions: Table S11, preliminary screening, c 30 μM

SMILES | Inhibition rate (%) ASPC-1
CC1C(CCc2nc3ccccc3c(=O)[nH]2)C2CC(=O)C1(C)C(=O)C2(C)O (stereo not drawn) [Compound 1, Chrysoquinazolinone A] | 0.00%
CC(c1nc2ccccc2c(=O)[nH]1)N1CCCC1=O (stereo not drawn) [Compound 2, Chrysoquinazolinone B] | 7.93%
Cc1cc(O)c(CC[C@@H](C)C(=O)O)c2scnc12 [Compound 3a, Chrysobenzothiazole A] | 18.16%

Each compound was assayed on L-02 (normal human hepatocytes) (assay: Cytotoxicity assay, SRB method, L-02). Conditions: Homo sapiens, L02; L-02 cells, SRB method.
Format: cell-based
Protocol: as §1, §2, §3, §4, §5, §6, §7

SMILES | IC50
CC1C(CCc2nc3ccccc3c(=O)[nH]2)C2CC(=O)C1(C)C(=O)C2(C)O (stereo not drawn) [Compound 1, Chrysoquinazolinone A] | > 30 µM
CC(c1nc2ccccc2c(=O)[nH]1)N1CCCC1=O (stereo not drawn) [Compound 2, Chrysoquinazolinone B] | > 30 µM
Cc1cc(O)c(CC[C@@H](C)C(=O)O)c2scnc12 [Compound 3a, Chrysobenzothiazole A] | > 30 µM

Same assay, conditions: Table S11, preliminary screening, c 30 μM

SMILES | Inhibition rate (%) L-02
CC1C(CCc2nc3ccccc3c(=O)[nH]2)C2CC(=O)C1(C)C(=O)C2(C)O (stereo not drawn) [Compound 1, Chrysoquinazolinone A] | -0.42%
CC(c1nc2ccccc2c(=O)[nH]1)N1CCCC1=O (stereo not drawn) [Compound 2, Chrysoquinazolinone B] | 0.28%
Cc1cc(O)c(CC[C@@H](C)C(=O)O)c2scnc12 [Compound 3a, Chrysobenzothiazole A] | 10.94%

These compounds were tested on NCI-H446/EP (human small cell lung cancer) cell line (assay: Cytotoxicity assay, SRB method, NCI-H446/EP). Conditions: Homo sapiens; NCI-H446/EP cells (resistant to cisplatin, etoposide, SN38, doxorubicin), SRB method.
Format: cell-based
Protocol: as §1, §2, §3, §4, §5, §6, §7

SMILES | IC50
CC1C(CCc2nc3ccccc3c(=O)[nH]2)C2CC(=O)C1(C)C(=O)C2(C)O (stereo not drawn) [Compound 1, Chrysoquinazolinone A] | > 30 µM
CC(c1nc2ccccc2c(=O)[nH]1)N1CCCC1=O (stereo not drawn) [Compound 2, Chrysoquinazolinone B] | > 30 µM
Cc1cc(O)c(CC[C@@H](C)C(=O)O)c2scnc12 [Compound 3a, Chrysobenzothiazole A] | > 30 µM

Same assay, conditions: Table S11, preliminary screening, c 30 μM

SMILES | Inhibition rate (%) NCI-H446/EP
CC1C(CCc2nc3ccccc3c(=O)[nH]2)C2CC(=O)C1(C)C(=O)C2(C)O (stereo not drawn) [Compound 1, Chrysoquinazolinone A] | 9.68%
CC(c1nc2ccccc2c(=O)[nH]1)N1CCCC1=O (stereo not drawn) [Compound 2, Chrysoquinazolinone B] | 12.47%
Cc1cc(O)c(CC[C@@H](C)C(=O)O)c2scnc12 [Compound 3a, Chrysobenzothiazole A] | 11.04%
